Data taken from PubChem BioAssay (NCI).
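GI50 marks 50% less growth. TGI marks complete inhibition of growth.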

Tests used:
Experiment in all cases: NCI tumour cell line growth inhibition, 384-well format
[1] = system: COLO 205 colon
[2] = system: SF-295 CNS
[3] = system: DU-145 prostate
[4] = system: UO-31 renal
[5] = system: OVCAR-5 ovarian
[6] = system: MCF7 breast
[7] = system: MOLT-4 leukemia
[8] = system: SF-539 CNS
[9] = system: CAKI-1 renal
[10] = system: LOX IMVI melanoma
[11] = system: NCI-H226 lung
[12] = system: BT-549 breast
[13] = system: HOP-62 NSCLC
[14] = system: TK-10 renal
[15] = system: A549 NSCLC
[16] = system: HOP-92 NSCLC
[17] = system: HS 578T breast
[18] = system: SK-OV-3 ovarian
[19] = system: SNB-19 CNS
[20] = system: PC-3 prostate
[21] = system: T-47D breast
[22] = system: MDA-MB-231 breast
[23] = system: NCI/ADR-RES ovarian
[24] = system: NCI-H23 lung
[25] = system: OVCAR-3 ovarian
[26] = system: UACC-62 melanoma
[27] = system: KM12 colon
[28] = system: HT29 colon
[29] = system: SK-MEL-2 melanoma
[30] = system: NCI-H322M lung
[31] = system: HCC-2998 colon
[32] = system: A498 renal
[33] = system: NCI-H460 NSCLC
[34] = system: K-562 leukemia
[35] = system: SNB-75 CNS
[36] = system: HCT-15 colon
[37] = system: MALME-3M melanoma
[38] = system: SK-MEL-28 melanoma
[39] = system: SK-MEL-5 melanoma
[40] = system: SW-620 colon
[41] = system: EKVX NSCLC
[42] = system: IGROV1 ovarian
[43] = system: U251 glioblastoma
[44] = system: M14 melanoma
[45] = system: SF-268 CNS
[46] = system: CCRF-CEM leukemia
[47] = system: NCI-H522 lung
[48] = system: OVCAR-8 ovarian
[49] = system: ACHN renal
[50] = system: HCT-116 colon
[51] = system: SN12C renal
[52] = system: MDA-MB-468 breast
[53] = system: 786-0 renal
[54] = system: MDA-MB-435 melanoma
[55] = system: UACC-257 melanoma
[56] = system: RPMI-8226 leukemia
[57] = system: OVCAR-4 ovarian
[58] = system: HL-60(TB) leukemia
[59] = system: RXF 393 renal

Question: What does the source list for `C=CC(=O)N1CCC(Oc2cc3c(Nc4ccc(Cl)c(Cl)c4F)ncnc3cc2OC)CC1`?
Answer: GI50 [1]: 4.34 µM; TGI [1]: 18.4 µM; GI50 [2]: 4.15 µM; TGI [2]: 14.9 µM; GI50 [3]: 0.879 µM; TGI [3]: 14.6 µM; GI50 [4]: 0.137 µM; TGI [4]: 2.08 µM; GI50 [5]: 1.23 µM; TGI [5]: 11.8 µM; GI50 [6]: 0.69 µM; TGI [6]: 14.1 µM; GI50 [7]: 0.43 µM; TGI [7]: 1.88 µM; GI50 [8]: 1.36 µM; TGI [8]: 3.56 µM; GI50 [9]: 0.198 µM; TGI [9]: 1.7 µM; GI50 [10]: 1.62 µM; TGI [10]: 3.47 µM; GI50 [11]: 0.813 µM; TGI [11]: 13.2 µM; GI50 [12]: 1.11 µM; TGI [12]: 3.99 µM; GI50 [13]: 2.27 µM; TGI [13]: 8.53 µM; GI50 [14]: < 0.01 µM; TGI [14]: 0.738 µM; GI50 [15]: 1.24 µM; TGI [15]: 12 µM; GI50 [16]: 1.39 µM; TGI [16]: 4.02 µM; GI50 [17]: 1.04 µM; TGI [17]: 2.46 µM; GI50 [18]: < 0.01 µM; TGI [18]: 1.52 µM; GI50 [19]: 2.92 µM; TGI [19]: 14.4 µM; GI50 [20]: 1.96 µM; TGI [20]: 10.4 µM; GI50 [21]: 0.0173 µM; TGI [21]: 7.89 µM; GI50 [22]: 2.1 µM; TGI [22]: 14 µM; GI50 [23]: 1.1 µM; TGI [23]: 3.21 µM; GI50 [24]: 1.78 µM; TGI [24]: 6.13 µM; GI50 [25]: 0.244 µM; TGI [25]: 3.21 µM; GI50 [26]: 2.44 µM; TGI [26]: 11.6 µM; GI50 [27]: 3.07 µM; TGI [27]: 12.7 µM; GI50 [28]: 2.42 µM; TGI [28]: 11.9 µM; GI50 [29]: 1.75 µM; TGI [29]: 4.66 µM; GI50 [30]: < 0.01 µM; TGI [30]: 4.15 µM; GI50 [31]: 1.62 µM; TGI [31]: 7.47 µM; GI50 [32]: 0.137 µM; TGI [32]: 1.95 µM; GI50 [33]: 2.87 µM; TGI [33]: 13.7 µM; GI50 [34]: 1.27 µM; TGI [34]: 2.88 µM; GI50 [35]: 0.291 µM; TGI [35]: 2.13 µM; GI50 [36]: 2.38 µM; TGI [36]: 12.7 µM; GI50 [37]: 2.52 µM; TGI [37]: 11.2 µM; GI50 [38]: 14 µM; TGI [38]: 27.1 µM; GI50 [39]: 2.98 µM; TGI [39]: 13.3 µM; GI50 [40]: 4.42 µM; TGI [40]: 16.6 µM; GI50 [41]: < 0.01 µM; TGI [41]: 2.14 µM; GI50 [42]: < 0.01 µM; TGI [42]: 0.817 µM; GI50 [43]: 3.52 µM; TGI [43]: 15.7 µM; GI50 [44]: 3.01 µM; TGI [44]: 15.4 µM; GI50 [45]: 1.19 µM; TGI [45]: 5.58 µM; GI50 [46]: 1.26 µM; TGI [46]: 2.74 µM; GI50 [47]: < 0.01 µM; TGI [47]: 0.0162 µM; GI50 [48]: 1.95 µM; TGI [48]: 12.2 µM; GI50 [49]: < 0.01 µM; TGI [49]: 11.2 µM; GI50 [50]: 3.73 µM; TGI [50]: 15.2 µM; GI50 [51]: 0.353 µM; TGI [51]: 6.44 µM; GI50 [52]: < 0.01 µM; TGI [52]: < 0.01 µM; GI50 [53]: 1.31 µM; TGI [53]: 4.74 µM; GI50 [54]: 2.64 µM; TGI [54]: 10.9 µM; GI50 [55]: 3.33 µM; TGI [55]: 13.6 µM; GI50 [56]: 1.25 µM; TGI [56]: 3.26 µM; GI50 [57]: 0.363 µM; TGI [57]: 5.42 µM; GI50 [58]: 1.94 µM; TGI [58]: 3.49 µM; GI50 [59]: 0.23 µM; TGI [59]: 1.31 µM
